This note sets out measurements from patent publication US11814364B2, “Pyridine N-oxide derivatives useful as factor XIa inhibitors” (Janssen Pharmaceutica NV, priority 2021, dated 2023).

Each structure is given as a SMILES string.

The IC50 is the midpoint of a concentration-inhibition curve.

human plasma kallikrein, sequence (P03952 391-638 limits assumed): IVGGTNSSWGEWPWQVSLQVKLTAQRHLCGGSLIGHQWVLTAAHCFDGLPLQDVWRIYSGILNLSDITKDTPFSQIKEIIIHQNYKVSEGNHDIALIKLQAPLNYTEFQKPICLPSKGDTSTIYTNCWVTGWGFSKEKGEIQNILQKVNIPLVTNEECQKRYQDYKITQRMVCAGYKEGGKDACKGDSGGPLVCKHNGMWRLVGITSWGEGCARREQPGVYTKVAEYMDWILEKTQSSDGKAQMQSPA
human plasma kallikrein, sequence (P03952 20-390 partner limits assumed): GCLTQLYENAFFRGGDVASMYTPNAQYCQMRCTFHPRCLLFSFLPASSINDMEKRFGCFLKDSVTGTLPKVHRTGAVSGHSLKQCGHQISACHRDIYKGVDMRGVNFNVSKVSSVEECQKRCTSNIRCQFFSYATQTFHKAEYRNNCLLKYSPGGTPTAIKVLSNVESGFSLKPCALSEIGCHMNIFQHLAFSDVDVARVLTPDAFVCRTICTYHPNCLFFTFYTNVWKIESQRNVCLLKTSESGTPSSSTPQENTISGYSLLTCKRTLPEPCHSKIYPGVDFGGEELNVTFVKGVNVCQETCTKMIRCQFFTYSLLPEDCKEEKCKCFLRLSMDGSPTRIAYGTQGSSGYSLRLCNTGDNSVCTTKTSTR

The target of the assay is human plasma kallikrein (Homo sapiens, UniProt P03952). As to the kind of experiment: Kallikrein inhibition FLINT assay with quenched AMC peptide substrate Z-Gly-Pro-Arg-AMC (end point EP or kinetic KIN reads). The format is biochemical. The conditions noted are these: kinetic reads at 5 min intervals over 30 min; read-out: Kallikrein (KIN) IC50. On the procedure:
A fluorescence intensity (FLINT) based assay was used to monitor inhibition of human plasma kallikrein.
The Kallikrein FLINT assay was used with the following Z-Gly-Pro-Arg-AMC assay buffer: 50 mM Tris, pH 7.5, 100 mM NaCl, 5 mM CaCl2, 0.1 mg/mL BSA, 0.03% CHAPS. Assay buffer was prepared by mixing all ingredients fresh. 2× Z-Gly-Pro-Arg-AMC peptide substrate was prepared by diluting 10 mM stock into 1× assay buffer for a 100 μM working concentration (50 μM final concentration).
Test compound(s) were run in an 11-point, 3-fold serial dilution with a final top compound concentration of 1 μM. Final DMSO in assay was 2%. Plasma kallikrein was pre-incubated for 30-minute with compound and then 50 μM substrate was added to initiate the reaction. The assay was run with either end point (EP) reads at 30 min or kinetic (KIN) reads at 5 min intervals over 30 minutes.
Percent inhibition (IC50) curves were generated per compound tested, and data was analyzed using a 4-parameter logistic fit using GeneData Screener. The relative fluorescence unit (RFU) values were normalized to percent inhibition using the following equation: % inhibition=((HC−LC)−(compound−LC)/(HC−LC))*100
An 11-point dose response curve for the test compound(s) was generated using GENDATA to determine IC50 value based on the following equation: Y=Bottom+(Top−Bottom)/(1+10^((log IC50−X)*HillSlope))
Results listed in columns with […] designation were measured using endpoint reads where a single fluorescence reading was measured for each well at a 30 min timepoint.
`NC(=O)C1CC1CC(c1ccc(-c2c(-n3cnnn3)ccc(Cl)c2F)c[n+]1[O-])n1cc(-c2ccc(N)nc2F)cn1` (racemic) [Example P201]: the IC50 is 73.9 nM. In the case of `COC(=O)Nc1ccc(-c2cnn(C(Cc3ccn(C)n3)c3ccc(-c4c(-n5cnnn5)ccc(Cl)c4F)c[n+]3[O-])c2)cc1` (racemic) [Example P327], the IC50 was determined as 29.1 nM. The figure for `O=C(NC1CC1)c1ccc(-c2cnn(C(CC3CCCCO3)c3ccc(-c4c(-n5cnnn5)ccc(Cl)c4F)c[n+]3[O-])c2)cc1` (single isomer, unassigned) [Example P77] is 36.2 nM.

Take `O=C(NC1CC1)c1ccc(-c2cnn(C(CC3CCCCO3)c3ccc(-c4c(-n5cnnn5)ccc(Cl)c4F)c[n+]3[O-])c2)cc1` (single isomer, unassigned) [Example P80]: the IC50 was found to be 53.3 nM.

Turning to `COCCC(c1ccc(-c2c(-n3cnnn3)ccc(Cl)c2F)c[n+]1[O-])n1cc(-c2ccc(NC(=O)OC)cc2)cn1` (single isomer, unassigned) [Example P84], the IC50 turned out to be 14.5 nM. The figure for `O=C(O)c1ccc(-c2cnn(C(CC3CC3C(=O)N3CCC(c4ccccc4)C3)c3ccc(-c4cc(Cl)ccc4-n4cnnn4)c[n+]3[O-])c2)cc1` (single isomer, unassigned) [Example P99] is 2370 nM; for `O=C(O)c1ccc(-c2cnn(C(CC3CC3C(=O)N3CCC(c4ccccc4)C3)c3ccc(-c4cc(Cl)ccc4-n4cnnn4)c[n+]3[O-])c2)cc1` (single isomer, unassigned) [Example P101] it is 625 nM. Next, `COC(=O)Nc1ccc(-c2cnn(C(CC3CCCCO3)c3ccc(-c4c(-n5cnnn5)ccc(Cl)c4F)c[n+]3[O-])c2)cc1` (single isomer, unassigned) [Example P115]: 29.1 nM; `O=C(O)c1ccc(-c2cnn(C(c3ccc(-c4cc(Cl)ccc4-n4cnnn4)c[n+]3[O-])C(O)c3ccccc3)c2)cc1` (single isomer, unassigned) [Example P118]: 64.9 nM; `O=C(O)c1ccc(-c2cnn(C(c3ccc(-c4cc(Cl)ccc4-n4cnnn4)c[n+]3[O-])C(O)c3ccccc3)c2)cc1` (single isomer, unassigned) [Example P119]: 155 nM. The figure for `COC(=O)Nc1ccc(-c2cnn(C(CC3CCCCO3)c3ccc(-c4c(-n5cnnn5)ccc(Cl)c4F)c[n+]3[O-])c2)cc1` (single isomer, unassigned) [Example P127] is 70.1 nM; for `O=C(NC1CC1)c1ccc(-c2cnn(C(CC3CCCCO3)c3ccc(-c4c(-n5cnnn5)ccc(Cl)c4F)c[n+]3[O-])c2)cc1` (single isomer, unassigned) [Example P142] it is 108 nM. `O=C(NC1CC1)c1ccc(-c2cnn(C(CC3CCCCO3)c3ccc(-c4c(-n5cnnn5)ccc(Cl)c4F)c[n+]3[O-])c2)cc1` (single isomer, unassigned) [Example P143]: the IC50 was 58.1 nM. Regarding `CCC(c1ccc(-c2c(-n3cnnn3)ccc(Cl)c2F)c[n+]1[O-])n1cc(-c2ccc(NC(=O)OC)cc2)cn1` (single isomer, unassigned) [Example P155], the IC50 was found to be 86.1 nM. Next, `CCCC(c1ccc(-c2c(-n3cnnn3)ccc(Cl)c2F)c[n+]1[O-])n1cc(-c2ccc(NC(=O)OC)cc2)cn1` (single isomer, unassigned) [Example P158]: 45.1 nM. Take `COC(=O)Nc1ccc(-c2cnn(C(Cc3ccc(Cl)cc3)c3ccc(-c4c(-n5cnnn5)ccc(Cl)c4F)c[n+]3[O-])c2)cc1` (single isomer, unassigned) [Example P159]: the IC50 came to 215 nM. Next, `COC(=O)Nc1ccc(-c2cnn(C(Cc3ccc(Cl)cc3)c3ccc(-c4c(-n5cnnn5)ccc(Cl)c4F)c[n+]3[O-])c2)cc1` (single isomer, unassigned) [Example P160]: 7 nM; `Nc1ccc(-c2cnn(C(CC3CC3)c3ccc(-c4c(-n5cnnn5)ccc(Cl)c4F)c[n+]3[O-])c2)c(Cl)n1` (single isomer, unassigned) [Example P178]: 21.6 nM; `COC(=O)Nc1ccc(-c2cnn(C(CC(C)C)c3ccc(-c4c(-n5cnnn5)ccc(Cl)c4F)c[n+]3[O-])c2)cc1` (single isomer, unassigned) [Example P181]: 67.7 nM. Consider `Cn1ncc(-c2cnn(C(CC3CC3)c3cc(Cl)c(-c4c(-n5cnnn5)ccc(Cl)c4F)c[n+]3[O-])c2)cc1=O` (single isomer, unassigned) [Example P190], for which the IC50 came out at 49.2 nM. The figure for `COC(=O)Nc1ccc(-c2cnn(C(CCOC(C)C)c3ccc(-c4c(-n5cnnn5)ccc(Cl)c4F)c[n+]3[O-])c2)cc1` (single isomer, unassigned) [Example P192] is 24 nM; for `Nc1ncc(-c2cnn(C(CC3CC3)c3ccc(-c4c(-n5cnnn5)ccc(Cl)c4F)c[n+]3[O-])c2)cc1F` (single isomer, unassigned) [Example P194] it is 228 nM. As to `COC(=O)Nc1ccc(-c2cnn(C(CC3CCCO3)c3ccc(-c4c(-n5cnnn5)ccc(Cl)c4F)c[n+]3[O-])c2)cc1` (single isomer, unassigned) [Example P202], the IC50 was 119 nM.

Turning to `COC(=O)Nc1ccc(-c2cnn(C(Cc3cccc(OC)c3)c3ccc(-c4c(-n5cnnn5)ccc(Cl)c4F)c[n+]3[O-])c2)cc1` (single isomer, unassigned) [Example P206], the IC50 amounted to 137 nM. In the case of `COC(=O)Nc1ccc(-c2cnn(C(Cc3cccc(OC)c3)c3ccc(-c4c(-n5cnnn5)ccc(Cl)c4F)c[n+]3[O-])c2)cc1` (single isomer, unassigned) [Example P207], the IC50 was 2.9 nM. The figure for `CCC(c1ccc(-c2c(-n3cnnn3)ccc(Cl)c2F)c[n+]1[O-])n1cc(-c2ccncc2)cn1` (single isomer, unassigned) [Example P212] is 59.3 nM; for `COC(=O)Nc1ccc(-c2cnn(C(CCO)c3ccc(-c4c(-n5cnnn5)ccc(Cl)c4F)c[n+]3[O-])c2)cc1` (single isomer, unassigned) [Example P218] it is 87.2 nM. The figure for `COC(=O)Nc1ccc(-c2cnn(C(CC(C)OC)c3ccc(-c4c(-n5cnnn5)ccc(Cl)c4F)c[n+]3[O-])c2)cc1` (single isomer, unassigned) [Example P228] is 1290 nM. In the case of `CCC(c1ccc(-c2c(-n3cnnn3)ccc(Cl)c2F)c[n+]1[O-])n1cc(-c2cc[n+]([O-])cc2)cn1` (single isomer, unassigned) [Example P234], the IC50 stood at 298 nM. Next, `[O-][n+]1cc(-c2c(-n3cnnn3)ccc(Cl)c2F)ccc1C(Cc1ccc(F)cc1)n1cc(-c2ccncc2)cn1` (single isomer, unassigned) [Example P235]: 1.4 nM; `[O-][n+]1cc(-c2c(-n3cnnn3)ccc(Cl)c2F)ccc1C(Cc1ccc(F)cc1)n1cc(-c2ccncc2)cn1` (single isomer, unassigned) [Example P236]: 158 nM. The figure for `[O-][n+]1ccc(-c2cnn(C(Cc3ccc(F)cc3)c3ccc(-c4c(-n5cnnn5)ccc(Cl)c4F)c[n+]3[O-])c2)cc1` (single isomer, unassigned) [Example P238] is 0.7 nM; for `O=C1CCCN1CC(c1ccc(-c2c(-n3cnnn3)ccc(Cl)c2F)c[n+]1[O-])n1cc(-c2cc[n+]([O-])cc2)cn1` (single isomer, unassigned) [Example P244] it is 22.4 nM; for `[O-][n+]1cc(-c2c(-n3cnnn3)ccc(Cl)c2F)ccc1C(CC1CC1)n1cc(-c2ccncn2)cn1` (single isomer, unassigned) [Example P258] it is 201 nM.

Consider `[O-][n+]1cc(-c2c(-n3cnnn3)ccc(Cl)c2F)ccc1C(CC1CC1)n1cc(-c2ccncc2)cn1` (single isomer, unassigned) [Example P262], for which the IC50 turned out to be 31.8 nM.

Regarding `[O-][n+]1cc(-c2c(-n3cnnn3)ccc(Cl)c2F)ccc1C(CC1CC1)n1cc(-c2ccnc(F)c2)cn1` (single isomer, unassigned) [Example P264], the IC50 turned out to be 46.3 nM. The figure for `COC(=O)Nc1ccc(-c2cnn(C(Cn3cccn3)c3ccc(-c4c(-n5cnnn5)ccc(Cl)c4F)c[n+]3[O-])c2)cc1` (single isomer, unassigned) [Example P272] is 3.2 nM. In the case of `COC(=O)Nc1ccc(-c2cnn(C(Cn3cccn3)c3ccc(-c4c(-n5cnnn5)ccc(Cl)c4F)c[n+]3[O-])c2)cc1` (single isomer, unassigned) [Example P273], the IC50 amounted to 10.9 nM. The figure for `[O-][n+]1ccc(-c2cnn(C(CC3CC3)c3ccc(-c4c(-n5cnnn5)ccc(Cl)c4F)c[n+]3[O-])c2)cc1` (single isomer, unassigned) [Example P280] is 84 nM; for `NC(=O)C1CC1CC(c1ccc(-c2c(-n3cnnn3)ccc(Cl)c2F)c[n+]1[O-])n1cc(-c2cc[n+]([O-])cc2)cn1` (single isomer, unassigned) [Example P282] it is 775 nM. The figure for `NC(=O)C1CC1CC(c1ccc(-c2c(-n3cnnn3)ccc(Cl)c2F)c[n+]1[O-])n1cc(-c2cc[n+]([O-])cc2)cn1` (single isomer, unassigned) [Example P283] is 74.5 nM.
